Key:
CaMKII = assay: Western blot of CaMKII activation (p-CaMKII T287) in myoblasts; type: cell-based, mouse
Protocol: Western Blot analysis. Cultured cells and whole tissues extracts were prepared with RIPA buffer supplemented with protease inhibitor cocktail (SIGMA P8340), and phosphatase inhibitor cocktails (SIGMA P5726 and P0044). Western blotting was performed using the Mini-PROTEAN Tetra Cell electrophoresis system, and transferred to PVDF membranes. The following primary antibodies concentrations were used p-CAMKII 1:1000 (Abcam ab182647), CaMKII 1:1000 (Cell Signaling 3362), GAPDH 1:10,000 (Abcam ab181602), p-ERK1/2 1:20,000 (SIGMA M9692), ERK1/2 1:40,000 (SIGMA), Myosin Heavy Chain (MF-20 DSHB hybridoma supernatant 1:100) Horseradish peroxidase conjugated secondary anti-mouse, anti-rabbit or anti-goat was used to detect proteins (Jackson Immunology). Western blots were imaged using the Chemidoc Multiplex system (Bio-rad).

[1] = system: primary chicken myoblasts; assay: Fusion index of primary chicken myoblasts (MyHC immunostaining); type: cell-based; settings: for Fusion: 48 hours post treatment
Protocol: (§1) Chicken primary derived myoblasts were used as a model to evaluate the efficiency of SCH772984 as the ERKi, compared to conventional differentiation medium (DM) for the purpose of producing muscle (meat) in tissue culture conditions. Chicken myoblasts were isolated from chicken embryos and expanded in proliferation medium. When sufficient cell numbers were acquired, cells were seeded on tissue culture plates and allowed to adhere for 24 hours. Then medium was changed to either PM supplemented with ERKi or DM. At 24-hours post treatment, the cells that received ERKi were replenished with fresh PM (without the addition of more ERKi), and DM treated cells were replenished with fresh DM. Media was replaced daily over a period of 72 hours.
Evaluation of muscle fiber formation was achieved by fixing the cells and staining for expression of Myosin Heavy Chain (FIG. 9A). […] Yet, treatment with conventional DM only began to form fibers beginning at 72-hours post treatment. A fusion index was quantified at 72 hours post treatment (FIG. 9B), in which the percentage of total nuclei present in a myotube (MyHC positive cell with 2 or more nuclei).
Primary chicken myoblast isolation and treatment: chicken myoblasts were isolated from broiler chicken embryos at day 18 from breast and leg muscles by using Trypsin B. Following tissue dissociation, the cell suspension was grown for 3-4 days on 10% Matrigel coated plates. At the first passage, the cells were lifted and pre-plated twice for 30 minutes to enrich for myoblasts and reduce the number of fibroblasts. Then cells were seeded at 8,000/well of optical-96 well plates in proliferation medium. 24 hours after plating, media was aspirated and replaced with the indicated treatment conditions in proliferation media or differentiation media (as indicated). After 24 hours with treatment, the media was aspirated and all wells were replenished with fresh proliferation media or differentiation media without any treatment. This was repeated daily. Cells were fixed at 48 hours after treatment. Compounds were purchased from Cayman Chemicals.
Immunofluorescent staining: Cells were fixed with ice cold 4% PFA in PBS for 10 minutes, permeabilized with 0.5% Triton X-100 in PBS for 6 minutes, and blocked in PBS with 0.025% tween, 10% normal horse serum and 10% normal goat serum for 1 hour at room temperature. Primary antibody incubation was done in blocking buffer overnight at 4 degrees, with the following antibodies: Myosin Heavy Chain (MyHC, MF20, DSHB hybridoma supernatant 1:10, alpha-actinin (SIGMA A7811). Cells were washed 3 times in PBS with 0.025% tween and then incubated with appropriate secondary antibodies in PBS 1 hour. Nuclei were labeled with DAPI (SIGMA D9542, 5 ug/ml). All fusion indexes and imaging analysis were performed on at least 1000 per technical repeat.

chicken myoblasts [2] = assay: qRT-PCR gene expression in chicken myoblasts; type: cell-based
Protocol: Quantitative real-time PCR (qRT-PCR). Total RNA was isolated using Tri-Reagent (SIGMA) according to the manufacturer's instructions. cDNA was synthesized with the High Capacity cDNA Reverse Transcription Kit (Applied Biosystems according to the manufacturer's instructions. qRT-PCR was performed with SYBR green PCR Master Mix (Applied Biosystems) using the StepOnePlus Real-time PCR system (Applied Biosystems). Values for specific genes were normalize to either Gapdh or Hprt housekeeping control as indicated in Figure legend. Expression was calculated using the ddCT method.
as §1

chicken myoblasts [3] = assay: Immunofluorescence of sarcomeric proteins in chicken myotubes; type: cell-based; settings: 48 hours post treatment
Protocol: as §1

bovine myoblasts = assay: Immunofluorescence intensity of sarcomeric proteins in bovine myotubes; type: cell-based; settings: 96 hours post-treatment
Protocol: Shown is immunofluorescence staining of the sarcomeric components of myosin heavy chain (MyHC), alpha-actinin, and Tropoinin T at 96 hours post treatment either with proliferation media (PM), differentiation media (DM), or with 1 uM SCH 772984 (ERKi).

ovine myoblasts = assay: Live imaging of fusion in ovine myoblasts; type: cell-based; settings: sheep derived myoblasts, 1 μM
Protocol: Bovine myoblasts were seeded in equal number in 96-well plates and the following day treated either with PM, PM supplemented with 0.5 uM SCH 772984 (ERKi) or differentiation media (DM). Media was replenished daily either with fresh PM or DM (ERKi was not added again). At 72 hours post treatment, cells were fixed and stained for myosin heavy chain, and several fields per condition were imaged. Nuclei per fiber was quantified per field to result in a fusion index. For ovine myoblasts—equal number of cells were seeded in an 8 well chamber slide for 24 hours. The following day cells were treated with either with 1 uM SCH 772984 (ERKi) or differentiation media (DM), supplemented with 100 nM of Sir-Actin reagent, then incubated for 4 hours and then the slide was transferred to a heated and CO2 chambered microscope unit. Several fields of view were selected and live imaging was performed by capturing images of each field every 7 minutes. The series of images for each treatment over a period of 31 hours was stacked into a movie file using ImageJ.

O=C(Nc1ccc2[nH]nc(-c3ccncc3)c2c1)[C@@H]1CCN(CC(=O)N2CCN(c3ccc(-c4ncccn4)cc3)CC2)C1 [SCH772984]
Time of CaMKII activation post ERKi treatment (CaMKII; 1 μM ERKi time-course): ≤ 16 h | CaMKII activation (p-CaMKII T287) (CaMKII; treatment of myoblasts with ERKi, 24 hours): activated | Muscle fibers begin to form earlier than with DM ([1]; chicken myoblasts): 48 h | Increase in fusion index compared to DM ([1]; chicken myoblasts, 72 hours post treatment): ~4 fold | Fusion index (percentage of total nuclei in MyHC positive cell with 2 or more nuclei) ([1]; chicken myoblasts, 72 hours post treatment, ERKi in PM vs DM): 62% | Time at which myotubes/fibers begin to form ([1]; chicken myoblasts, post treatment): ≤ 24 h | Fusion ([1]; primary chicken myoblasts, Differentiation media, 1 uM): 46% | Fusion ([1]; primary chicken myoblasts, Differentiation media, 10 uM): 61% | Fusion ([1]; primary chicken myoblasts, Proliferation media, 1 uM): 59% | Fusion ([1]; primary chicken myoblasts, Proliferation media, 10 uM): 69% | Fusion index ([1]; primary chicken myoblasts, proliferation medium, ERKi treatment alone (SCH772984 1 uM), 48 hours): 62% | Gene expression of maturation/differentiation markers mrf4, myh1, myh2, tnnt3 compared with DM (chicken myoblasts [2]): elevated gene expression | Downregulation of Myf5 expression compared to DM (chicken myoblasts [2]; 72 hour timecourse): stronger across all time points | Pax7 RNA expression (chicken myoblasts [2]; 72 hour timecourse): reduction | Sarcomeric structure (striation of actinin, troponin, phalloidin signals) (chicken myoblasts [3]): sarcomeric structure is already apparent | Maturation markers (sarcomeric proteins MyHC, actinin, troponin signal intensity) compared to DM (bovine myoblasts): increased | Fusion and myotube formation compared to DM (ovine myoblasts): significantly more fusion and myotube formation

From US20240074473A1, “METHOD FOR INDUCING HYPERTROPHIC MUSCLE FIBERS FOR INDUSTRIAL MEAT PRODUCTION” (Yeda Research and Development Co. Ltd., priority 2021, published 2024)
